Reference: ChEMBL document CHEMBL1201862, “PubChem BioAssay data set” (2004)
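Tested at 5 concentrations; 48 h exposure; 96-well plates; endpoints linearly interpolated, else capped at highest concentration. Abbreviation: GI50, concentration required for 50% inhibition of growth.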 Calls of active or inactive are those of the source. No stated cut-off is given here; in the data, active = GI50 up to about 1.1 µM and inactive = higher.

Key:
Assay in all cases: NCI anticancer screen, dose series, 48 h
SR = tested on: SR
M14 = tested on: M14
CAKI-1 = tested on: CAKI-1
MDA-N = tested on: MDA-N
CCRF-CEM = tested on: CCRF-CEM
HCT-15 = tested on: HCT-15
OVCAR-3 = tested on: OVCAR-3
MCF7 = tested on: MCF7
SF-268 = tested on: SF-268
SF-295 = tested on: SF-295
NCI-H226 = tested on: NCI-H226
UACC-62 = tested on: UACC-62
T47D = tested on: T47D
DU-145 = tested on: DU-145
NCI-H23 = tested on: NCI-H23
SK-OV-3 = tested on: SK-OV-3
HCC 2998 = tested on: HCC 2998
LOX IMVI = tested on: LOX IMVI
Malme-3M = tested on: Malme-3M

SMILES	GI50 (SR)	GI50 (M14)	GI50 (CAKI-1)	GI50 (MDA-N)	GI50 (CCRF-CEM)	GI50 (HCT-15) [µM]	GI50 (OVCAR-3)	GI50 (MCF7)	GI50 (SF-268)	GI50 (SF-295)	GI50 (NCI-H226)	GI50 (UACC-62)	GI50 (T47D)	GI50 (DU-145)	GI50 (NCI-H23)	GI50 (SK-OV-3)	GI50 (HCC 2998)	GI50 (LOX IMVI)	GI50 (Malme-3M)
CN1C(=O)C(O)C[C@@H]1c1ccccc1 (some centres undefined)	> 100 µM (inactive)	> 100 µM (inactive)	> 100 µM (inactive)	> 100 µM (inactive)	> 100 µM (inactive)	> 100	> 100 µM (inactive)	> 100 µM (inactive)	> 100 µM (inactive)	> 100 µM (inactive)	> 100 µM (inactive)	> 100 µM (inactive)	> 100 µM (inactive)	> 100 µM (inactive)	> 100 µM (inactive)	> 100 µM (inactive)	> 100 µM (inactive)	> 100 µM (inactive)	> 100 µM (inactive)
Cc1cc2cc3c(cc2c(-c2ccc([N+](=O)[O-])cc2)n1)OCO3	27.9 µM (inactive)	88.7 µM (inactive)	38.4 µM (inactive)	54.2 µM (inactive)	31.6 µM (inactive)	26.5	55.2 µM (inactive)	37.8 µM (inactive)	34.6 µM (inactive)	50 µM (inactive)	24.8 µM (inactive)	20.6 µM (inactive)	34.9 µM (inactive)	62.8 µM (inactive)	45 µM (inactive)	25.6 µM (inactive)	74 µM (inactive)	41.2 µM (inactive)	61.1 µM (inactive)
CC(=O)Nc1ccc2c3c(cc(O)c2c1)N(C(=O)CCCCC(=O)N1CC(CCl)c2c1cc(O)c1cc(NC(C)=O)ccc21)CC3CCl (centres undefined)	< 0.01 µM (active)	0.083 µM (active)	0.745 µM (active)	0.174 µM (active)	< 0.01 µM (active)	12.9	0.209 µM (active)	< 0.01 µM (active)	< 0.0141 µM (active)	0.151 µM (active)	0.0333 µM (active)	0.0154 µM (active)	0.0129 µM (active)	< 0.01 µM (active)	< 0.0161 µM (active)	0.34 µM (active)	0.21 µM (active)	0.0313 µM (active)	0.149 µM (active)
CCOC(=O)C1(Cc2ccc3c(c2)CCC3)Cc2cc3c(cc2C1=O)CCC3 (centres undefined)	44.3 µM (inactive)	> 57.4 µM (inactive)	> 46.3 µM (inactive)	41.4 µM (inactive)	11.9 µM (inactive)	58.6	> 100 µM (inactive)	33.7 µM (inactive)	98.4 µM (inactive)	48.3 µM (inactive)	> 83 µM (inactive)	> 100 µM (inactive)	14.2 µM (inactive)	75.5 µM (inactive)	49.4 µM (inactive)	> 100 µM (inactive)	62.5 µM (inactive)	> 71.6 µM (inactive)	> 61.2 µM (inactive)
O=c1nc(N2CCNCC2)oc2cc(Cl)oc(=O)c12	1.65 µM (inactive)	2.45 µM (inactive)	2.59 µM (inactive)	2.2 µM (inactive)	1.83 µM (inactive)	3.25	4.06 µM (inactive)	3.98 µM (inactive)	3.89 µM (inactive)	7.13 µM (inactive)	15.4 µM (inactive)	7.67 µM (inactive)	2.79 µM (inactive)	5.5 µM (inactive)	7.24 µM (inactive)	12.3 µM (inactive)	11.1 µM (inactive)	2.06 µM (inactive)	3.93 µM (inactive)
CCOC(=O)c1nc2ccc(C(F)(F)F)cc2nc1NCc1ccc(F)cc1	37.8 µM (inactive)	48.6 µM (inactive)	41.5 µM (inactive)	25.4 µM (inactive)	24.9 µM (inactive)	29.4	50.2 µM (inactive)	30.9 µM (inactive)	11.5 µM (inactive)	75.5 µM (inactive)	29 µM (inactive)	23.1 µM (inactive)	17.1 µM (inactive)	46.5 µM (inactive)	27.5 µM (inactive)	43 µM (inactive)	24.8 µM (inactive)	26.1 µM (inactive)	35.5 µM (inactive)
CCOP(=O)(OCC)C(C)(C)OC(=O)NC(F)(F)F	> 100 µM (inactive)	> 100 µM (inactive)	> 100 µM (inactive)	> 100 µM (inactive)	> 100 µM (inactive)	> 100	> 100 µM (inactive)	> 100 µM (inactive)	> 100 µM (inactive)	> 100 µM (inactive)	12.7 µM (inactive)	> 100 µM (inactive)	> 100 µM (inactive)	> 100 µM (inactive)	> 100 µM (inactive)	> 100 µM (inactive)	> 100 µM (inactive)	> 100 µM (inactive)	> 100 µM (inactive)
O=C(c1ccccc1)N1CCN(C(=S)NC2CCCCC2)C1=S	28.5 µM (inactive)	16.8 µM (inactive)	24 µM (inactive)	19.4 µM (inactive)	12.2 µM (inactive)	15.8	15.6 µM (inactive)	22.8 µM (inactive)	16.8 µM (inactive)	20.9 µM (inactive)	14.7 µM (inactive)	19.3 µM (inactive)	15.8 µM (inactive)	21.8 µM (inactive)	15.9 µM (inactive)	25.7 µM (inactive)	16.4 µM (inactive)	16 µM (inactive)	15.5 µM (inactive)
CCOC(=O)C1(C(=O)OCC)OC(C)=NC1(C(=O)OC)C(=O)OC	> 27.7 µM (inactive)	> 100 µM (inactive)	> 100 µM (inactive)	> 100 µM (inactive)	> 100 µM (inactive)	> 100	> 75.3 µM (inactive)	> 61.5 µM (inactive)	> 100 µM (inactive)	> 100 µM (inactive)	> 62.5 µM (inactive)	> 100 µM (inactive)	> 100 µM (inactive)	> 100 µM (inactive)	> 100 µM (inactive)	> 100 µM (inactive)	> 100 µM (inactive)	> 100 µM (inactive)	> 100 µM (inactive)
Cc1ccccc1OC(C)C(=O)NN1C(=O)CC(=O)NC1=S (centres undefined)	49.1 µM (inactive)	> 100 µM (inactive)	> 100 µM (inactive)	> 100 µM (inactive)	–	> 100	> 100 µM (inactive)	47.4 µM (inactive)	> 100 µM (inactive)	86.7 µM (inactive)	70.5 µM (inactive)	80.5 µM (inactive)	23.9 µM (inactive)	> 100 µM (inactive)	> 100 µM (inactive)	> 100 µM (inactive)	> 100 µM (inactive)	> 100 µM (inactive)	> 100 µM (inactive)
Cc1cc(N(CCOS(C)(=O)=O)CCOS(C)(=O)=O)ccc1/C=N/c1ccc(-c2csc(-c3ccccc3)n2)c(Cl)c1	1.54 µM (inactive)	8.67 µM (inactive)	0.179 µM (active)	3.78 µM (inactive)	1.1 µM (active)	8.04	8.65 µM (inactive)	4.27 µM (inactive)	8.63 µM (inactive)	2.36 µM (inactive)	9.12 µM (inactive)	2.95 µM (inactive)	15.4 µM (inactive)	1.67 µM (inactive)	5.98 µM (inactive)	3.37 µM (inactive)	2.93 µM (inactive)	6.73 µM (inactive)	11.9 µM (inactive)
Brc1ccc2c(-c3csc(-c4c[nH]c5ccc(Br)cc45)n3)c[nH]c2c1	3.89 µM (inactive)	3.12 µM (inactive)	3.01 µM (inactive)	5.15 µM (inactive)	3.79 µM (inactive)	3.38	6 µM (inactive)	3.82 µM (inactive)	3.6 µM (inactive)	3.19 µM (inactive)	3.42 µM (inactive)	3.18 µM (inactive)	2.94 µM (inactive)	3.86 µM (inactive)	2.87 µM (inactive)	11.2 µM (inactive)	2.32 µM (inactive)	1.94 µM (inactive)	5.4 µM (inactive)
NNC(=O)C1(NC(=O)c2ccccc2)C(c2ccccc2)C(c2ccccc2)=NN1c1ccccc1 (centres undefined)	18.2 µM (inactive)	22.8 µM (inactive)	15.6 µM (inactive)	24.2 µM (inactive)	8.99 µM (inactive)	18.5	18.1 µM (inactive)	37.9 µM (inactive)	66.7 µM (inactive)	24.5 µM (inactive)	> 100 µM (inactive)	23.1 µM (inactive)	23.1 µM (inactive)	72.6 µM (inactive)	54 µM (inactive)	29.9 µM (inactive)	57.1 µM (inactive)	23.8 µM (inactive)	> 100 µM (inactive)
O=C(CCCn1ccnc1[N+](=O)[O-])NCCn1ccnc1[N+](=O)[O-]	> 100 µM (inactive)	> 100 µM (inactive)	> 100 µM (inactive)	> 100 µM (inactive)	> 100 µM (inactive)	> 100	> 100 µM (inactive)	> 100 µM (inactive)	> 100 µM (inactive)	> 100 µM (inactive)	> 100 µM (inactive)	> 100 µM (inactive)	> 100 µM (inactive)	> 100 µM (inactive)	> 100 µM (inactive)	> 100 µM (inactive)	> 100 µM (inactive)	> 100 µM (inactive)	> 100 µM (inactive)
O=C(Nc1cccc(-c2cn3ccccc3n2)c1)c1ccncc1	24 µM (inactive)	33.7 µM (inactive)	31.3 µM (inactive)	31.3 µM (inactive)	27.3 µM (inactive)	24.2	35.1 µM (inactive)	31.6 µM (inactive)	41.4 µM (inactive)	40.7 µM (inactive)	56.5 µM (inactive)	20.9 µM (inactive)	19.2 µM (inactive)	49.4 µM (inactive)	23.6 µM (inactive)	70.8 µM (inactive)	56.2 µM (inactive)	38.3 µM (inactive)	29.3 µM (inactive)
